Values quoted from earlier work as cited in patent US20190374622A1, “COMPOSITION AND METHOD FOR CO-ADMINISTRATION WITH A GROWTH PROMOTANT” (OmniGen Research, LLC, priority 2014, published 2019).
Counter-ions that a name gives are not always drawn. Like-named read-outs stand apart in the source and are kept apart here.

Legend:
[1] = cattle, cited from earlier work
[2] = finishing swine; cited from earlier work
[3] = cited from earlier work; for increase in average daily weight gain: last 2 weeks
[4] = cited from earlier work
[5] = 300 mg per head per day, vs cattle that did not receive it

Structure (SMILES)	increase in hot carcass weight [1, 5]	increase in live weight [1, 5]	carcass leanness and yield grade [1]	carcass quality, as measured by marbling score and quality grade [1]	better feed efficiency [2]	fat-free lean gain [2]	increase in average daily gain [2]	increase in carcass weights [2]	meat quality [2]	increase in average daily weight gain ([3]; hens)	increase in average daily weight gain ([3]; toms)	meat quality, including pH, color and tenderness ([3]; turkeys)	improvement of feed efficiency ([4]; cattle, administered as Zilmax, one study (Intervet/Schering Plough 2010))	number of Yield Grade 4 and 5 cattle [4]	percentage of Yield Grade 1 cattle [4]
CC(CCc1ccc(O)cc1)NCC(O)c1ccc(O)cc1 (racemic) [Ractopamine hydrochloride, 4-[3-[[2-hydroxy-2-(4-hydroxyphenyl)ethyl]amino]butyl]phenol]	20 pounds	22 pounds	improves	no effect	10%	improve	10%	5 pounds	not affecting	19%	13%	no effect	–	–	–
CC(C)NC1CCn2c(=O)[nH]c3cccc(c32)C1O (stereo not drawn) [Zilpaterol hydrochloride, 4,5,6,7-tetrahydro-7-hydroxy-6-(isopropylamino)imidazo[4,5,1-jk][1]benzazepin-2(1H)-one]	–	–	–	–	–	–	–	–	–	–	–	–	3%	cut	increase
